Laboratory results taken from the NIST ThermoML archive (doi:10.1016/j.fluid.2011.11.016).
Numbers after ± are expanded uncertainties.

Experiment: xn = mol fraction of the nth substance listed
Conditions: 298.15 K, 101.3 kPa, Liquid, Vibrating tube method

mass density (x2 = 0) | mass density (x2 = 0.0503) | mass density (x2 = 0.0991) | mass density (x2 = 0.2021) | mass density (x2 = 0.3118) | mass density (x2 = 0.3926) | mass density (x2 = 0.5039) | mass density (x2 = 0.666) | mass density (x2 = 0.7062) | mass density (x2 = 0.8061) | mass density (x2 = 0.9061) | mass density (x2 = 0.9539) | mass density (x1 = 1) | SMILES
773.88 ± 0.13 kg/m3 | 766.95 ± 0.14 kg/m3 | 760.53 ± 0.14 kg/m3 | 748.16 ± 0.15 kg/m3 | 735.69 ± 0.15 kg/m3 | 726.61 ± 0.15 kg/m3 | 717.21 ± 0.16 kg/m3 | 703.79 ± 0.17 kg/m3 | 700.61 ± 0.17 kg/m3 | 692.71 ± 0.17 kg/m3 | 685.62 ± 0.18 kg/m3 | 682.6 ± 0.18 kg/m3 |  | C1CCCCC1 [cyclohexane] + CCCCCCC
 |  |  |  |  |  |  |  |  |  |  |  | 679.57 ± 0.18 kg/m3 | CCCCCCC [heptane] + C1CCCCC1
